Here are results for 1 molecule from patent EP0112685A1, “Compounds containing beta-lactams” (BEECHAM GROUP PLC, priority 1982, dated 1984).

The data set in a line: Blood levels in mice after oral or subcutaneous administration, assayed by biological β-lactamase inhibition-zone technique. It counts as in vivo. The note with it: for concentration at 0.5 h: 30 mins after administration; for concentration at 0.75 h: 45 mins after administration; for concentration at 1 h: 60 mins after administration; for concentration at 1.5 h: 90 mins after administration; for concentration at 2 h: 120 mins after administration; for AUC: mice. As to the method: The compound of Example 4 was administered either orally (by gastric lavage) or subcutaneously as a solution to groups of mice. At intervals after administration, 5 mice which had received the compound subcutaneously and 10 mice which had received the compound orally were sacrificed, and blood collected from the axillary region. The blood was assayed for content of compound 4 using a biological β-lactamase inhibition-zone assay technique. The mean values (+ standard deviation - SD) are tabulated below.

Setting [1] is: mouse, blood, sc, subcutaneous administration, 10 mg/kg, average for 5 mice.
Setting [2] is: mouse, blood, oral administration, 20 mg/kg, average for 10 mice.

For orientation: AUC means concentration integrated over time. Low readings indicate low exposure, high ones high exposure. `O=C(O)C1C(=CCOCCCl)OC2CC(=O)N21` (stereo not shown) [Example 4, Lithium 9-0-(2-chloroethyl)clavulanate]: where the note is “administered by either an oral or parenteral route, result in words”, the “levels in the blood of mice” value was “high and prolonged levels”. Besides, where the note is “mouse, blood, sc, subcutaneous administration, 10 mg/kg, 10 mins after administration, average for 5 mice”, the concentration at 10 min worked out at 22800 ng/mL. Further, where the note is “mouse, blood, sc, subcutaneous administration, 10 mg/kg, 20 mins after administration, average for 5 mice”, the concentration at 20 min amounted to 17300 ng/mL. Besides, under setting [1], the concentration at 0.5 h is 13300 ng/mL, the concentration at 0.75 h came out at 7700 ng/mL, the concentration at 1 h stood at 5200 ng/mL and the concentration at 1.5 h was found to be 2700 ng/mL. The molecule also gave a concentration at 2 h under setting [1] of 1800 ng/mL. In addition, under “mouse, blood, oral administration, 20 mg/kg, 15 mins after administration, average for 10 mice”, the concentration at 0.25 h is 16600 ng/mL. Under setting [2], this molecule showed a concentration at 0.5 h of 10500 ng/mL, a concentration at 0.75 h of 7940 ng/mL, a concentration at 1 h of 7420 ng/mL and a concentration at 1.5 h of 3910 ng/mL. For the same molecule, under setting [2], the concentration at 2 h came to 3200 ng/mL. Moreover, the exposure (AUC) (mouse, sc, subcutaneous administration, 10 mg/kg, blood) came out at 15100 ng·h/mL. For the setting “mouse, oral administration, 20 mg/kg, blood”, this molecule registered an AUC of 14300 ng·h/mL.
